Data on five compounds can be found in paper PMC7016952, “Characterization of the Menin-MLL Interaction as Therapeutic Cancer Target” (Cancers, 2020).

Residues, ends and D or L forms follow the SMILES beside them. *: point of attachment. Cbz = O=C(OCc1ccccc1)*

In one data set the target is T1, menin-MLL interaction (Homo sapiens, UniProt O00255).
T1 construct: recombinant full length, His-tagged menin
T1 sequence (O00255 1-610): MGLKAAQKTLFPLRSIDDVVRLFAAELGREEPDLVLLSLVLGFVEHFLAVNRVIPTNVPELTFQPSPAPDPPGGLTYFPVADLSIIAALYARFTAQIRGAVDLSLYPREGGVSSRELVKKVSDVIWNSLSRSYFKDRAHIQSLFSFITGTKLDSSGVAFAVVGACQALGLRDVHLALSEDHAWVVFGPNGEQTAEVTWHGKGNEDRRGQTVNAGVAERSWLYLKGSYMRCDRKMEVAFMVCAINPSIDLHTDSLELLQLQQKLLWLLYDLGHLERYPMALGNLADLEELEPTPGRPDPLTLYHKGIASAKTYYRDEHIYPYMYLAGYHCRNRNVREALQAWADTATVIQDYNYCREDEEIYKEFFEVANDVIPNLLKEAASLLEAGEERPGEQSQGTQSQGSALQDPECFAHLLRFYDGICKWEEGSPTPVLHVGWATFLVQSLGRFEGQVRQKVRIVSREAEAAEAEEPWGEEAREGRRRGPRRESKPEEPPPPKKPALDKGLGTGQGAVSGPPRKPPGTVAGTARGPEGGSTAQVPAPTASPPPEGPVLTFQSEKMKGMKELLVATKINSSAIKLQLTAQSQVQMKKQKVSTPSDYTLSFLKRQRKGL
Kind of data set: TR-FRET menin-MLL binding assay. The following applies: read-out: Potency IC50 Menin-MLL binding.

Another data set has as its system HL-60 cells. In words: Proliferation inhibition, HL-60. Type of data set: cell-based. The following applies: Homo sapiens, read-out: Potency IC50 HL-60.
In a further data set the target is T2, menin (Homo sapiens, UniProt O00255).
T2 construct: purified menin (1–615 with GST-tag cleaved as described above); GST (TEV cleavable) (N, cleaved yes); made in house; host or cells: E. coli BL21 (DE3)
T2 sequence (O00255 1-615 isoform O00255-1): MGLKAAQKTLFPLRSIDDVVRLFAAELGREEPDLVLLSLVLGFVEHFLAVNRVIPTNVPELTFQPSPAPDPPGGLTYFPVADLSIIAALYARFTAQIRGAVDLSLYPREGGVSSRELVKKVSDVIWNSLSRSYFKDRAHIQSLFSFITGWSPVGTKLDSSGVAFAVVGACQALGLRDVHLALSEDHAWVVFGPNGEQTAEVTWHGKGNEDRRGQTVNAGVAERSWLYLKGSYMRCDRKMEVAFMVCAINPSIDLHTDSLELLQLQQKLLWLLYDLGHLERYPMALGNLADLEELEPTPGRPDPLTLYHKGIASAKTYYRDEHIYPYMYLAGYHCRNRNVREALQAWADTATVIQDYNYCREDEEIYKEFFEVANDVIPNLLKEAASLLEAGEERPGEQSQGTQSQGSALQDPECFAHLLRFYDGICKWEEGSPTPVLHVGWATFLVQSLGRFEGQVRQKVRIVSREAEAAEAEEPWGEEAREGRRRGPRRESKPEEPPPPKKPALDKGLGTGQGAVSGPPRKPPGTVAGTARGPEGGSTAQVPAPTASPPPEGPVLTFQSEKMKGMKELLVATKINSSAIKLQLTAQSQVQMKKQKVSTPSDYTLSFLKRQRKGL
Kind of data set: Isothermal Titration Calorimetry (ITC) on purified menin. The class given is binding. The following applies: ITC, 25 °C, menin 1-615; read-out: KD. As to the method:
Cloning of expression vectors for recombinant menin was performed as follows. […] Proteins were expressed in E. coli BL21 (DE3) following 0.1 mM IPTG induction at 17 °C overnight. For purification, cell pellets were resuspended in buffer A (50 mM Tris pH 7.5, 300 mM NaCl, 2 mM DTT). Cells were lysed using a high pressure Microfluidics apparatus and the cell debris pelleted by centrifugation. The supernatant was applied to a GST column (GE Healthcare, Chicago, IL, USA), washed with two column volumes of washing buffer A and eluted with Buffer B (Buffer A plus 15 mM reduced glutathione). If necessary, the purification tag was cleaved off with the addition of His-TEV protease (1:20 mass ratio) during overnight incubation in buffer A. His-TEV was removed by IMAC column rebinding and final protein purification of either GST-cleaved or uncleaved menin-1 was performed by size exclusion chromatography using a HiLoad 16/60 Superdex 200 (GE Healthcare) column in buffer C (Buffer A but 50 mM NACl).
The compound was dissolved in 100% DMSO to a concentration of 10 mM and subsequently diluted to a final concentration of 5 µM in ITC Buffer. Isothermal Titration Calorimetry (ITC) was performed at 25 °C in a Microcal PEAQ-ITC (Malvern Panalytical). […] Reference Power was set to 6 μcal/s. Data were collected on high feedback mode. Analysis was performed with a single binding site model in the Microcal PEAQ-ITC Analysis Software (Malvern Panalytical).

A short description of data set [1]: Metabolic stability in rat hepatocytes. The class given is in vitro ADME. The following applies: in vitro maximal bioavailability. As to the method: Liver cells were distributed at a density of 1.0 × 10^6 cells/mL and treated with 1 µM BAY-155 or MI-503. During incubation, the hepatocyte suspensions were continuously shaken, and aliquots were taken at 2, 8, 16, 30, 45, and 90 min, fixed with cold methanol and stored at −20 °C. Next, samples were centrifuged and the supernatant was analyzed with an LC-MS/MS. The compound half-life was determined from the concentration–time plot. The intrinsic clearances were calculated from the half-life, together with additional parameters (liver blood flow, quantity of liver cells in vivo and in vitro).

In another data set the test system is Jurkat cells. In words: Proliferation inhibition, Jurkat. The class given is cell-based. The following applies: Homo sapiens, read-out: Potency IC50 Jurkat.
The target of a further data set is CYP 2C8 (Homo sapiens, UniProt P10632). In words: CYP inhibition 2C8. Type of data set: in vitro ADME.
The subject of data set [2] is T3, menin protein levels in VCaP cells.
T3 construct: endogenous in cells; host or cells: VCaP
In words: Western blot of menin protein level. The class given is cell-based, human. On the technique in general: A western blot detects proteins with antibodies after separation by electrophoresis.

The next data set deals with CYP 3A4 (Homo sapiens, UniProt P08684). Kind of data set: CYP inhibition 3A4. The class given is in vitro ADME.
A further data set deals with CYP 2D6 (Homo sapiens, UniProt P10635). In words: CYP inhibition 2D6. The class given is in vitro ADME.
Data set [3] relates to safety pharmacology relevant proteins (GPCRs, ion channels and transporters). Kind of data set: Selectivity panel of safety pharmacology assays. The following applies: 10 µM.
The next data set has as its system MV4;11 cells. Kind of data set: Proliferation inhibition, MV4;11. The following applies: Homo sapiens, MV4-11; proliferation; read-out: Potency IC50 MV4;11. Type of data set: cell-based, human.
Another data set has as its target CYP 2C9 (Homo sapiens, UniProt P11712). In words: CYP inhibition 2C9. The class given is in vitro ADME.
A further data set concerns the target CYP 1A2 (Homo sapiens, UniProt P05177). Kind of data set: CYP inhibition 1A2. The class given is in vitro ADME.
The next data set relates to MOLM-13 cells. Kind of data set: Proliferation inhibition, MOLM-13. Type of data set: cell-based, human. The following applies: Homo sapiens, proliferation, read-out: Potency IC50 MOLM-13.
The test system of data set [4] is ER signaling pathway genes in MCF7 tumor samples. Kind of data set: Ex vivo gene expression in MCF7 xenografts. On the set-up: species or system mice. The following applies: 27 days of treatment. How it is done:
(§1) Total RNA was isolated using RNeasy-Plus Mini kit (Qiagen, Hilden, Germany). RNA (1 μg) was reverse transcribed using SuperScript III First-Strand Synthesis SuperMix (Life Technologies) and the generated cDNA was analyzed with commercial primers (Supplementary Materials Table S1) by qRT-PCR using TaqMan Fast Advanced Master Mix (Life Technologies). For the RNA-seq study, ZR-75-1, BT474, PANC-1, MiaPaCa-2, 22RV1, JMSU-1, DLD-1, SW1463, LoVo and G401 cells were treated with 5 µM BAY-155 or DMSO for 48 h prior to RNA extraction. After 48 h of 5 µM BAY-155 or DMSO treatment, MCF7, VCaP and LNCaP cells were stimulated for further 12 h with 0.1 nM of E2 (ß-Estradiol) or 1 nM R1881, respectively. MCF7, VCaP and LNCaP cells were cultured in starvation medium (containing 5 µM BAY-155 or DMSO) 6 h before stimulation. RNA was isolated using RNeasy-Plus Mini kit (Qiagen). The purified RNA was used for library preparation (Illumina, San Diego, CA, USA. TruSeq Stranded mRNA Kit) and the generated libraries were sequenced (Illumina, HiSeq2500 HTv4, SR, dual-indexing, 50 cycles).
(§2) Tumors were harvested, dissociated and total RNA was extracted using the TissueLyser (Qiagen, Hilden, Germany) together with RNeasy-Plus Mini kit according to the manufacturer protocol.

Another data set has as its system MCF7 xenograft. In words: MCF7 xenograft efficacy. Type of data set: in vivo, mice. As to the method: (§3) Tumor cells were injected subcutaneously into the flanks of 6- to 9-week old animals. Efficacy studies in xenograft models were performed at Bayer or EPO GmbH (Berlin-Buch, Germany) using NMRI nu/nu, SCID, BALB/c Nude female mice or SCID male mice (VCaP tumors). All animal studies were conducted in accordance with the animal welfare laws and were approved by the State Office for Health and Social Affairs Berlin (LAGeSo). Experiments were run under the animal license B3600a0007. Compound treatment started at a predefined tumor size or burden or at a predefined day after cell inoculation. BAY-155 was administered orally (p.o.) at various doses and regorafenib, tamoxifen and enzalutamide (resuspended in PEG400/H2O 6/4 or PEG400/EtOH 9/1) were used as control treatment for RKO, MCF7 and VCaP xenografts, respectively. Subcutaneous tumor volumes were determined by caliper measurement.

In another data set the test system is RKO xenograft. In words: RKO xenograft efficacy. Type of data set: in vivo, mice. How it is done: as §3
The subject of a further data set is VCaP xenograft. In words: VCaP xenograft efficacy. The class given is in vivo, mice. How it is done:
as §3

The subject of data set [5] is AR signaling pathway genes in VCaP tumor samples. In words: Ex vivo gene expression in VCaP xenografts. Also noted: species or system mice. The following applies: 52 days of treatment. As to the method: as §1, §2

Sequence of CYP 2C8 (P10632 whole entry): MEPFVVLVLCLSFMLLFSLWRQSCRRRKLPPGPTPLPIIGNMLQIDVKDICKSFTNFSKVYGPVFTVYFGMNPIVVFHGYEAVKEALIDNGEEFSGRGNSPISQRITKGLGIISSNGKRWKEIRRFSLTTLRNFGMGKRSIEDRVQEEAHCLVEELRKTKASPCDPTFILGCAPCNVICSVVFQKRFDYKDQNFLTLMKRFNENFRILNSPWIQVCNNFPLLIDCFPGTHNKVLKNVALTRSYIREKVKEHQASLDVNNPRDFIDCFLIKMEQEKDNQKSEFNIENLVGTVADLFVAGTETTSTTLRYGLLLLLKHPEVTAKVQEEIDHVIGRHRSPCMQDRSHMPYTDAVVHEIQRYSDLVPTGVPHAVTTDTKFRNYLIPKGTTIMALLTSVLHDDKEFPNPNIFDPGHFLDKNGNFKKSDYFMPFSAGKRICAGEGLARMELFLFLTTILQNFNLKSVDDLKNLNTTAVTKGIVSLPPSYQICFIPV
Sequence of CYP 1A2 (P05177 whole entry): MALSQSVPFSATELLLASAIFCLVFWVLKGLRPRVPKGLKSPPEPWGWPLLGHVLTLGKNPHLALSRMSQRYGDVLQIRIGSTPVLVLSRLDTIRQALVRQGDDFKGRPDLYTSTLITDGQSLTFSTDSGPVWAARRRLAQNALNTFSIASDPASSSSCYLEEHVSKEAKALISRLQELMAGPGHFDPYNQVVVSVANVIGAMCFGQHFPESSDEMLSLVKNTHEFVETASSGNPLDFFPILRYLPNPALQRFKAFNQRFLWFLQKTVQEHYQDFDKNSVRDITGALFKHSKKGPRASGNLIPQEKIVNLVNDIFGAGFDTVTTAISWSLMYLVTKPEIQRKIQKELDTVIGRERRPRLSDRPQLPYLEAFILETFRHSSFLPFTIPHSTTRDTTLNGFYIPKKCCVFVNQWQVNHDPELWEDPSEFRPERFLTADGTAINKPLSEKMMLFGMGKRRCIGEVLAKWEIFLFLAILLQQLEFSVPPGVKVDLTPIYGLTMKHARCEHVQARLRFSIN
Sequence of CYP 3A4 (P08684 whole entry): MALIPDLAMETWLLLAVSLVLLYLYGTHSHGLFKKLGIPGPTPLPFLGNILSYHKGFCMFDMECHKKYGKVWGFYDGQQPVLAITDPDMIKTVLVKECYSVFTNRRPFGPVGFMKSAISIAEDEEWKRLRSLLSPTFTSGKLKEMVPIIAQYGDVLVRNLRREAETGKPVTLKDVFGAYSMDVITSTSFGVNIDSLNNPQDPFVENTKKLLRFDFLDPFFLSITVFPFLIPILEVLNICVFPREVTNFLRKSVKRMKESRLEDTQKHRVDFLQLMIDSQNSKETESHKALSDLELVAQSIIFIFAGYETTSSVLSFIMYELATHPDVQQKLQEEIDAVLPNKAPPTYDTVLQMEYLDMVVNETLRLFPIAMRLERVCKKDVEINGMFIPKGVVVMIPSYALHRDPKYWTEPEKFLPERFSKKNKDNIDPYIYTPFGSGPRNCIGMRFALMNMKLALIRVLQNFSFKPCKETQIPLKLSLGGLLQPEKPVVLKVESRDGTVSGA
Sequence of CYP 2C9 (P11712 whole entry): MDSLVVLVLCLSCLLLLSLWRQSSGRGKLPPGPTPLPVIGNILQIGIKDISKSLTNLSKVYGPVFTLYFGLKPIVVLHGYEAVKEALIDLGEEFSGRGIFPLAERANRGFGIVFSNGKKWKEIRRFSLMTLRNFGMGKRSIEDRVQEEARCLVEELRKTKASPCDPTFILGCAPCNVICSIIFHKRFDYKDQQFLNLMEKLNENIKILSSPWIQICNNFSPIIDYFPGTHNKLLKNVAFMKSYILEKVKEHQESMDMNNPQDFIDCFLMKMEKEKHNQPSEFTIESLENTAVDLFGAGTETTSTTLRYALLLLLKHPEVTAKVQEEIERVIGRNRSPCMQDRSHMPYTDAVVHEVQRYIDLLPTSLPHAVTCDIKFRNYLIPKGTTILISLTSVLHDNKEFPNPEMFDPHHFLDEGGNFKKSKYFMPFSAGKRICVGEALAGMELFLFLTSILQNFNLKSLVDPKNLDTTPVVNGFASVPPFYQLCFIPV
Sequence of CYP 2D6 (P10635 whole entry): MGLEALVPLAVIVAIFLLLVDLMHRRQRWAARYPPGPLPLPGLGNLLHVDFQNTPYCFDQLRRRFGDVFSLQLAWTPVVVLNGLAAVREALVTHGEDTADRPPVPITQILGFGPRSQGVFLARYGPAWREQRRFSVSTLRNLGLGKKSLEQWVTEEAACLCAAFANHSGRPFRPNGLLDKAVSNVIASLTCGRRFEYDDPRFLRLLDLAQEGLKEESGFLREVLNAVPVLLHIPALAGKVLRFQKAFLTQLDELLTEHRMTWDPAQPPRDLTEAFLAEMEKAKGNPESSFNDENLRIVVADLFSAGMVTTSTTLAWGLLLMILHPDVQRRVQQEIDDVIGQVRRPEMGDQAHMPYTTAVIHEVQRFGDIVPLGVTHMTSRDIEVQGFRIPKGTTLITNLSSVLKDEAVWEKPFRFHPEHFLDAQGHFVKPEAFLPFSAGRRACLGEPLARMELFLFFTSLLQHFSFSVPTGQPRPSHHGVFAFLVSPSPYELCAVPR

Usually IC50 stands for the concentration needed to halve the response being measured. By Kd is commonly meant the concentration at which binding is half-saturated. `Cc1c(CN2CCC(Nc3ncnc4sc(CC(F)(F)F)cc34)CC2)ccc2c1cc(C#N)n2Cc1cn[nH]c1` [MI-503]: the IC50 was found to be 80 nM on menin-MLL interaction; 672 nM with HL-60 cells; 568 nM with Jurkat cells; 4000 nM on CYP 2C8; 1000 nM against CYP 3A4; 2400 nM against CYP 2D6. Further, the IC50 in the data set on MV4;11 cells was 251 nM; on CYP 2C9 it was 800 nM; on CYP 1A2, more than 10000 nM; with MOLM-13 cells, 893 nM. In addition, in the data set “In vivo DMPK in rat” (rat in vivo bioavailability), the “in vivo F Rat” value is 2.7%. Also, the clearance in “In vivo DMPK in rat” (whole blood, rat in vivo, read-out: in vivo CL blood Rat (converted)) is 25 mL/min/kg. In addition, on menin, the Kd turned out to be 94 nM. Further, in data set [1], the “hepatocytes Fmax Rat” value is reported as 48%. In addition, the menin protein levels entry in data set [2] (Western blot) is “reduce menin protein levels in a time- and concentration-dependent manner”. In data set [3], the “number of tested proteins inhibited by ≥ 50%” value was 28.

In the case of `CC/C(=C(\c1ccccc1)c1ccc(OCCN(C)C)cc1)c1ccccc1` [tamoxifen, reference compound], the “EGR3, GREB1 and PGR1 expression ex vivo” value in [4] is on record as “significant reduction”. Also, in the data set on MCF7 xenograft, the “tumor volume and tumor weight” value is “reduced tumor volume and tumor weight”.

For the compound `CNC(=O)c1cc(Oc2ccc(NC(=O)Nc3ccc(Cl)c(C(F)(F)F)c3)c(F)c2)ccn1` [regorafenib, reference compound], the “tumor volume and weight (anti-growth effects)” value in the data set with RKO xenograft is “pronounced reduction of tumor volume and weight”.

On to `CNC(=O)c1ccc(N2C(=S)N(c3ccc(C#N)c(C(F)(F)F)c3)C(=O)C2(C)C)cc1F` [enzalutamide, reference compound], for which the “tumor volume and tumor weight” value with VCaP xenograft is “reduced tumor volume and tumor weight”. For the same compound, in [5], the “FKBP5 and TMPRSS2 expression ex vivo” value is “significant reduction”.

Take `CC(C)C[C@@H](C=O)NC(=O)[C@H](CC(C)C)NC(=O)[C@H](CC(C)C)NC(=O)OCc1ccccc1` [MG-132] (Cbz-Leu-Leu-Leu-aldehyde): in data set [2] (MG-132 10 µM with BAY-155 10 µM, 16 h), the “rescue of menin protein level under BAY-155 treatment” value is listed as “fully rescued the menin protein level”.
